Experimental data: ChEMBL document CHEMBL3397032, “Computer-aided discovery of aminopyridines as novel JAK2 inhibitors” (Bioorg Med Chem, 2015)
The source made the active and inactive calls. No cut-off for these calls is given here.

Tests used:
[1] = target: Tyrosine-protein kinase JAK2 (Homo sapiens, UniProt O60674); assay: Inhibition of IL4-induced JAK2 autophosphorylation in human HT-29 cells by SDS-polyacrylamide gel electrophoresis and Western blot method; type: cell-based
HT-29 = assay: Effect on total JAK2 protein level in IL4-induced human HT-29 cells at 1 uM to 100 uM by SDS-polyacrylamide gel electrophoresis and Western blot method; type: functional, cell-based

Chain of Tyrosine-protein kinase JAK2 (O60674 whole entry): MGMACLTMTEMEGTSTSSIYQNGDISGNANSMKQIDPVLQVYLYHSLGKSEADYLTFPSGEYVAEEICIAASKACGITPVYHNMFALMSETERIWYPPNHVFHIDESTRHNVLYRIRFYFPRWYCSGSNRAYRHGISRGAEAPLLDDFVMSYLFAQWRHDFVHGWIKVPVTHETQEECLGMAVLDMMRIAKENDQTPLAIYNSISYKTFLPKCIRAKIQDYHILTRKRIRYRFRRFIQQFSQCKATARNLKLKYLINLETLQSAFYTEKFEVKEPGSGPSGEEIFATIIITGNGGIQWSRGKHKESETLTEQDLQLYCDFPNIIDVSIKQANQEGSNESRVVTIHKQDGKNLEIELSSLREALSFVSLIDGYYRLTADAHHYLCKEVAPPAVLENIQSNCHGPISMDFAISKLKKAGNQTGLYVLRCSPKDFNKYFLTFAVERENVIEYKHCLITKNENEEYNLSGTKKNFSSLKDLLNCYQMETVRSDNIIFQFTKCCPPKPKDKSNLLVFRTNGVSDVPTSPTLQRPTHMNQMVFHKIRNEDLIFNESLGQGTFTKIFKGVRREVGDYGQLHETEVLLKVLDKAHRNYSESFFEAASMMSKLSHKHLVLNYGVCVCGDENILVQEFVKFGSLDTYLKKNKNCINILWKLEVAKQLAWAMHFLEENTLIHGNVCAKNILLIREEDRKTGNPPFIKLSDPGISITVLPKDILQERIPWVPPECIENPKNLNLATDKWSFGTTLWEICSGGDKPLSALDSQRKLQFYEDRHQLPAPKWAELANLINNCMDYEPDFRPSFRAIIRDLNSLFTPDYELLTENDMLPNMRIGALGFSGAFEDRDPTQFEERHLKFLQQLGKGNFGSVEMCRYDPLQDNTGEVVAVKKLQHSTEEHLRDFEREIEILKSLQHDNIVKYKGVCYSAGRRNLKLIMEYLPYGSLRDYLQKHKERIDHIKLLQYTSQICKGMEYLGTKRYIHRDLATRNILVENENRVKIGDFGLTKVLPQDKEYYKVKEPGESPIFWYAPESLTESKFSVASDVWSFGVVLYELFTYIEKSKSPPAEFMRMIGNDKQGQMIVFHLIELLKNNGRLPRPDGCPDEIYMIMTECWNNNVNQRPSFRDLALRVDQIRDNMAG

| IC50 [1] | SMILES | Activity (HT-29) |
| --- | --- | --- |
| 9.5 µM | COc1cccc(NC(=O)c2cnc(N3CCN(c4ccccc4OC)CC3)c([N+](=O)[O-])c2)c1 | inactive |
| – | CCCCN(C)c1ncc(NS(=O)(=O)c2ccccc2C)cc1C(=O)O | inactive |
| 6.9 µM | Cc1ccccc1S(=O)(=O)Nc1cnc(N2CCCCC2)c(C(=O)O)c1 | inactive |
| 8.5 µM | COc1cccc(NC(=O)c2cnc(Nc3cccc(OC)c3)c([N+](=O)[O-])c2)c1 | inactive |
